Counter-ions that a name gives are not always drawn.
Target: human σ1 receptor (Homo sapiens, UniProt Q99720)
Assay: biochemical
Parameters: μ and σ1 dual binding: scale not given here
Conditions: combined class from Ki at human σ1 receptor (A1) and Ki at human μ-opioid receptor (A2); radioligand binding
Procedure: Biological Activity Pharmacological Study Human σ1 Receptor Radioligand Assay
The assay was carried out with 7 μg of membrane suspension, 5 nM of [^3H](+)-pentazocine in either absence or presence of either buffer or 10 μM Haloperidol for total and non-specific binding, respectively. Binding buffer contained Tris-HCl 50 mM at pH 8. Plates were incubated at 37° C. for 120 minutes. After the incubation period, the reaction mix was then transferred to MultiScreen HTS, FC plates (Millipore), filtered and plates were washed 3 times with ice-cold 10 mM Tris-HCL (pH7.4). Filters were dried and counted at approximately 40% efficiency in a MicroBeta scintillation counter (Perkin-Elmer) using EcoScint liquid scintillation cocktail

Chain of human σ1 receptor (Q99720 whole entry): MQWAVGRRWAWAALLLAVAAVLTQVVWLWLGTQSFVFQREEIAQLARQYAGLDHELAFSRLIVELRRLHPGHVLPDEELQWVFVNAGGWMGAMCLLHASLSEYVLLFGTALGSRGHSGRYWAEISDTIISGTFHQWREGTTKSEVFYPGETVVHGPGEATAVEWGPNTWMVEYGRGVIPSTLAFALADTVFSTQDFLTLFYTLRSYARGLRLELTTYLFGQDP

| Compound | μ and σ1 dual binding |
| --- | --- |
| Cl.O=C(Cc1ccccc1)N1CCOC2(CCN(CCc3ccccc3)CC2)C1 [Example 4, 1-(9-phenethyl-1-oxa-4,9-diazaspiro[5.5]undecan-4-yl)-2-phenylethanone hydrochloride] | ++ |
| Cl.O=C(c1cccnc1)N1CCOC2(CCN(CCc3ccccc3)CC2)C1 [Example 5, (9-phenethyl-1-oxa-4,9-diazaspiro[5.5]undecan-4-yl)(pyridin-3-yl)methanone hydrochloride] | ++ |
| O=C(c1cscn1)N1CCOC2(CCN(CCc3ccccc3)CC2)C1 [Example 12, (9-phenethyl-1-oxa-4,9-diazaspiro[5.5]undecan-4-yl)(thiazol-4-yl)methanone] | ++ |
| Cl.O=C(c1nccs1)N1CCOC2(CCN(CCc3ccccc3)CC2)C1 [Example 13, (9-phenethyl-1-oxa-4,9-diazaspiro[5.5]undecan-4-yl)(thiazol-2-yl)methanone hydrochloride] | ++ |
| Cl.O=C(c1cncs1)N1CCOC2(CCN(CCc3ccccc3)CC2)C1 [Example 14, (9-phenethyl-1-oxa-4,9-diazaspiro[5.5]undecan-4-yl)(thiazol-5-yl)methanone hydrochloride] | ++ |
| Cl.O=C(Cc1cccnc1)N1CCOC2(CCN(CCc3ccccc3)CC2)C1 [Example 15, 1-(9-phenethyl-1-oxa-4,9-diazaspiro[5.5]undecan-4-yl)-2-(pyridin-3-yl)ethanone hydrochloride] | ++ |
| Cl.O=C(CC1CCOCC1)N1CCOC2(CCN(CCc3ccccc3)CC2)C1 [Example 16, 1-(9-phenethyl-1-oxa-4,9-diazaspiro[5.5]undecan-4-yl)-2-(tetrahydro-2H-pyran-4-yl)ethanone hydrochloride] | ++ |
| Cl.O=C(Cc1ccccn1)N1CCOC2(CCN(CCc3ccccc3)CC2)C1 [Example 19, 1-(9-phenethyl-1-oxa-4,9-diazaspiro[5.5]undecan-4-yl)-2-(pyridin-2-yl)ethanone hydrochloride] | ++ |
| Cl.O=C(CC1CC1)N1CCOC2(CCN(CCc3ccccc3)CC2)C1 [Example 20, 2-cyclopropyl-1-(9-phenethyl-1-oxa-4,9-diazaspiro[5.5]undecan-4-yl)ethanone hydrochloride] | ++ |
| Cl.O=C(c1ncccc1F)N1CCOC2(CCN(CCc3ccccc3)CC2)C1 [Example 25, (3-fluoropyridin-2-yl)(9-phenethyl-1-oxa-4,9-diazaspiro[5.5]undecan-4-yl)methanone hydrochloride] | ++ |
| Cl.O=C(c1cncc(F)c1)N1CCOC2(CCN(CCc3ccccc3)CC2)C1 [Example 26, (5-fluoropyridin-3-yl)(9-phenethyl-1-oxa-4,9-diazaspiro[5.5]undecan-4-yl)methanone hydrochloride] | ++ |
| CC1CN(C(=O)c2ncccc2F)CC2(CCN(CCc3ccccc3)CC2)O1.Cl (stereo not drawn) [Example 32, (3-fluoropyridin-2-yl)(2-methyl-9-phenethyl-1-oxa-4,9-diazaspiro[5.5]undecan-4-yl)methanone hydrochloride] | ++ |
| CC1CN(C(=O)c2cncc(C(F)(F)F)c2)CC2(CCN(CCc3ccccc3)CC2)O1.Cl (stereo not drawn) [Example 36, (2-methyl-9-phenethyl-1-oxa-4,9-diazaspiro[5.5]undecan-4-yl)(5-(trifluoromethyl)pyridin-3-yl)methanone hydrochloride] | ++ |
| CC1CN(C(=O)c2ccccc2)CC2(CCN(CCc3cccc(C(F)(F)F)n3)CC2)O1 (stereo not drawn) [Example 38, (2-methyl-9-(2-(6-(trifluoromethyl)pyridin-2-yl)ethyl)-1-oxa-4,9-diazaspiro[5.5]undecan-4-yl)(phenyl)methanone dihydrochloride] | ++ |
| CC1CN(C(=O)c2ccccc2)CC2(CCN(CCc3ncccc3C(F)(F)F)CC2)O1.Cl (stereo not drawn) [Example 41, (2-methyl-9-(2-(3-(trifluoromethyl)pyridin-2-yl)ethyl)-1-oxa-4,9-diazaspiro[5.5]undecan-4-yl)(phenyl)methanone hydrochloride] | ++ |
| CC1CN(C(=O)c2ccccc2)CC2(CCN(CCc3ccc(C(F)(F)F)cn3)CC2)O1.Cl (stereo not drawn) [Example 42, (2-methyl-9-(2-(5-(trifluoromethyl)pyridin-2-yl)ethyl)-1-oxa-4,9-diazaspiro[5.5]undecan-4-yl)(phenyl)methanone hydrochloride] | ++ |
| CC1CN(C(=O)c2ccccn2)CC2(CCN(CCc3ncccc3Cl)CC2)O1.Cl (stereo not drawn) [Example 48, (9-(2-(3-chloropyridin-2-yl)ethyl)-2-methyl-1-oxa-4,9-diazaspiro[5.5]undecan-4-yl)(pyridin-2-yl)methanone hydrochloride] | ++ |
| Cl.O=C(c1ccccc1)N1CCOC2(CCN(CCc3ccccn3)CC2)C1 [Example 63, phenyl(9-(2-(pyridin-2-yl)ethyl)-1-oxa-4,9-diazaspiro[5.5]undecan-4-yl)methanone hydrochloride] | ++ |
| Cl.O=C(c1ccccc1)N1CCOC2(CCN(CCc3ccc(C(F)(F)F)nc3)CC2)C1 [Example 70, phenyl(9-(2-(6-(trifluoromethyl)pyridin-3-yl)ethyl)-1-oxa-4,9-diazaspiro[5.5]undecan-4-yl)methanone hydrochloride] | ++ |
| CC1CN(C(=O)c2ccccn2)CC2(CCN(CCc3cccc(OC(F)(F)F)c3)CC2)O1 (stereo not drawn) [Example 80, (2-methyl-9-(3-(trifluoromethoxy)phenethyl)-1-oxa-4,9-diazaspiro[5.5]undecan-4-yl)(pyridin-2-yl)methanone dihydrochloride] | ++ |
| Cl.O=S(=O)(c1ccccc1)N1CCOC2(CCN(CCc3ccccc3)CC2)C1 [Example 83, 9-phenethyl-4-(phenylsulfonyl)-1-oxa-4,9-diazaspiro[5.5]undecane hydrochloride] | ++ |
| CC1CN(C(=O)c2ccccc2)CC2(CCN(CCc3ccccn3)CC2)O1.Cl (stereo not drawn) [Example 87, (2-methyl-9-(2-(pyridin-2-yl)ethyl)-1-oxa-4,9-diazaspiro[5.5]undecan-4-yl)(phenyl)methanone hydrochloride] | ++ |
| CCC(=O)N1CC(C)OC2(CCN(CCc3ccccc3F)CC2)C1.Cl (stereo not drawn) [Example 91, 1-(9-(2-fluorophenethyl)-2-methyl-1-oxa-4,9-diazaspiro[5.5]undecan-4-yl)propan-1-one hydrochloride] | ++ |

Same assay, conditions: combined class from Ki at human σ1 receptor (A1) and Ki at human μ-opioid receptor (A2); radioligand binding; read-out: μ and σ1 dual binding

| Compound | Ki [nM] |
| --- | --- |
| O=C(C1CCOCC1)N1CCOC2(CCN(CCc3ccccc3)CC2)C1 [Example 18, (9-phenethyl-1-oxa-4,9-diazaspiro[5.5]undecan-4-yl)(tetrahydro-2H-pyran-4-yl)methanone] | > 500 |
| CC1CN(C(=O)c2ccccc2F)CC2(CCN(CCc3ncccc3F)CC2)O1 (stereo not drawn) [Example 59, (2-fluorophenyl)(9-(2-(3-fluoropyridin-2-yl)ethyl)-2-methyl-1-oxa-4,9-diazaspiro[5.5]undecan-4-yl)methanone dihydrochloride] | > 500 |
| O=C(c1ccccc1)N1CCOC2(CCN(CCc3cccnc3)CC2)C1 [Example 71, phenyl(9-(2-(pyridin-3-yl)ethyl)-1-oxa-4,9-diazaspiro[5.5]undecan-4-yl)methanone dihydrochloride] | > 500 |
| CC1CN(C(=O)c2ccccc2)CC2(CCN(CCc3ccc(S(N)(=O)=O)cc3)CC2)O1 (stereo not drawn) [Example 75, 4-(2-(4-benzoyl-2-methyl-1-oxa-4,9-diazaspiro[5.5]undecan-9-yl)ethyl)benzene-sulfonamide] | > 500 |
| CC1CN(C(=O)c2ccc(Cl)cn2)CC2(CCN(CCc3csc(NC(=O)OC(C)(C)C)n3)CC2)O1 (stereo not drawn) [Example 78, tert-butyl (4-(2-(4-(5-chloropicolinoyl)-2-methyl-1-oxa-4,9-diazaspiro[5.5]undecan-9-yl)ethyl)thiazol-2-yl)carbamate] | > 500 |
| CC1CN(C(=O)c2ccccc2)CC2(CCN(CCc3csc(NC(=O)OC(C)(C)C)n3)CC2)O1 (stereo not drawn) [Example 79, tert-butyl (4-(2-(4-benzoyl-2-methyl-1-oxa-4,9-diazaspiro[5.5]undecan-9-yl)ethyl)thiazol-2-yl)carbamate] | > 500 |
| CC(C)CCN1CCC2(CC1)CN(C(=O)c1ccccc1)CC(C)O2 (stereo not drawn) [Example 86, (9-isopentyl-2-methyl-1-oxa-4,9-diazaspiro[5.5]undecan-4-yl)(phenyl)methanone hydrochloride] | > 500 |
| CC(C)OCCN1CCC2(CC1)CN(C(=O)c1ccccc1)CC(C)O2 (stereo not drawn) [Example 88, (9-(2-isopropoxyethyl)-2-methyl-1-oxa-4,9-diazaspiro[5.5]undecan-4-yl)(phenyl)methanone hydrochloride] | > 500 |
| CC1CN(C(=O)c2ccccc2)CC2(CCN(CC(=O)N3CCOCC3)CC2)O1 (stereo not drawn) [Example 89, 2-(4-benzoyl-2-methyl-1-oxa-4,9-diazaspiro[5.5]undecan-9-yl)-1-morpholinoethanone hydrochloride] | > 500 |
| CC1CN(C(=O)c2ccccc2)CC2(CCN(CC(=O)N3CCCCC3)CC2)O1 (stereo not drawn) [Example 90, 2-(4-benzoyl-2-methyl-1-oxa-4,9-diazaspiro[5.5]undecan-9-yl)-1-(piperidin-1-yl)ethanone hydrochloride] | > 500 |

From patent US10065971B2 (priority 2014, dated 2018)
